According to patent publication US20140200215A1, “LYSOPHOSPHATIDIC ACID RECEPTOR ANTAGONISTS” (INTERMUNE, INC., priority 2013, published 2014):

What was measured:
Assay type in all cases: cell-based
Human LPA1 [1] = target: T1, Human LPA1 (Homo sapiens, UniProt Q92633); experiment: Beta-Arrestin based assay for human LPA1R antagonists (PathHunter); conditions: CHO cells expressing ProLink tagged human LPA1R; antagonist mode, 0.5 micromolar LPA
Protocol: Beta-Arrestin Based Assays for Human LPA1R Antagonists and Agonists
A CHO cell line stably expressing the ProLink™ tagged human LPA1R was obtained from DiscoverX Inc, Fremont, Calif. In this system, β-Arrestin was fused to an N-terminal deletion mutant of β-galactosidase (termed the enzyme acceptor or EA), the human LPA1R was fused to a smaller (42 amino acids) weakly complementing fragment termed ProLink™. […] Cell handling and assays were performed according to protocols specified in the PathHunter® assays kits (DiscoverX, Fremont, Calif.). Assays were performed in quadruplicate in white 384 well plates. End point luminescence data were plotted and fit to a 4 parameter logistic function to obtain IC50 values. For antagonist assays, an […] concentration of agonist (LPA) equal to 0.5 micromolar was used.

[2] = test system: primary fibroblasts (including lung, dermal), HFL-1, 3T3 and CHO cells expressing LPA1R; experiment: LPA1 migration assay (Oris cell migration); conditions: inhibition of cell migration in response to chemoattractant (LPA, serum)
From the text: Migration of primary fibroblasts (including lung, dermal), HFL-1, 3T3 and CHO cells expressing LPA1R were monitored using the Oris™ assay (Platypus Technologies, Madison, Wis.). These cells were dye (Cell Tracker Green™) loaded and serum starved for 12-24 hrs. In response to chemoattractants such as LPA and serum, the cells migrated inward in to the exclusion (detection) zone. After fixing, fluorescent cells in the detection zone were counted using a high content reader. The ability of LPA1 antagonists to inhibit cell migration is quantified by plotting cell number vs. compound concentration and curve fitting the resulting dose-response curve to a 4 parameter logistic function.

Human LPA1 [3] = target: T1, Human LPA1; experiment: LPA1 calcium flux assay; set-up: the full-length cDNA for human LPA1 is obtained by PCR of the reverse transcription reaction; expressed in transfected cells; conditions: human LPA1 expressing CHO cells, stimulated with 10 nM LPA; read-out: Ca Flux LPA1 IC50
Protocol: Establishment of a CHO Cell Line Stably Expressing Human LPA1
A 1.1 kb cDNA encoding the human LPA1 receptor is cloned from human lung. Human lung RNA (Clontech Laboratories, Inc. USA) is reverse transcribed using the RETROscript kit (Ambion, Inc.) and the full-length cDNA for human LPA1 is obtained by PCR of the reverse transcription reaction. The nucleotide sequence of the cloned human LPA1 is determined by sequencing and is confirmed to be identical to the published human LPA1 sequence (An et al. Biochem. Biophys. Res. Commun. 231:619 (1997). The cDNA is cloned into the pCDNA5 pcDNA5/FRT expression plasmid and is transfected in CHO cells using lipofectamine 2000 (Invitrogen Corp., USA). Clones stably expressing human LPA1 are selected using hygromycin and identified as cells that show Ca-influx in response to LPA.
LPA1 and LPA3 Calcium Flux Assays
Human LPA1 or LPA3 expressing CHO cells were seeded at 20,000-45,000 cells per well in a 96-well poly-D-lysine coated plate one or two days before the assay. Prior to the assay, the cells were washed once with PBS and then cultured in serum-free media overnight. On the day of the assay, a calcium indicator dye (Calcium 4, Molecular Devices) in assay buffer (HBSS with Ca^2+ and Mg^2+ and containing 20 mM Hepes and 0.3% fatty-acid free human serum albumin) was added to each well and incubation continued for 1 hour at 37° C. 10 μl of test compounds in 2.5% DMSO were added to the cells and incubation continued at room temperature for 30 minutes. Cells were then stimulated by the addition of 10 nM LPA and intracellular Ca^2+ measured using the Flexstation 3 (Molecular Devices). IC50, were determined using Graphpad prism analysis of drug titration curves.

T1 sequence (Q92633 whole entry): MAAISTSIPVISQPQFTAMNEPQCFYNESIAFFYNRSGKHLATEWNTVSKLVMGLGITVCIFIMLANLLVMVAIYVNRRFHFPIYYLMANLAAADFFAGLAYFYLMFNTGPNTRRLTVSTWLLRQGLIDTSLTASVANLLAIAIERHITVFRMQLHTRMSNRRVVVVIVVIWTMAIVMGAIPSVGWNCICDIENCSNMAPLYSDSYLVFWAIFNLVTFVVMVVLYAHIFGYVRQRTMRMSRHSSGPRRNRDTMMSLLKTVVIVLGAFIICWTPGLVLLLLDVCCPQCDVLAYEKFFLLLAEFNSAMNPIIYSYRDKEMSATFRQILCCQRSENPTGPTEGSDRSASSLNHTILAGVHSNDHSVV

| Structure (SMILES) | EC50 (Human LPA1 [1]) | IC50 (Human LPA1 [3]) | EC50 [2] |
| --- | --- | --- | --- |
| Cc1noc(C#Cc2ccc3cc(C4(CC(=O)O)CC4)ccc3c2)c1NC(=O)O[C@H](C)c1ccccc1 [IT003] | < 50 nM | < 50 nM | 50 to 500 nM |
| Cc1noc(-c2ccc(-c3ccc(C4(CC(=O)O)CC4)cc3)cc2)c1NC(=O)O[C@H](C)c1ccccc1 [IT004] | < 50 nM | < 50 nM | < 50 nM |
| Cc1noc(-c2ccc(-c3nc4ccc(C(=O)O)cc4s3)cc2)c1NC(=O)O[C@H](C)c1ccccc1 [IT010] | > 500 nM | > 500 nM | > 500 nM |
| C[C@@H](OC(=O)Nc1c(C#Cc2cc3sc(C4(C(=O)O)CC4)cc3s2)cnn1C)c1ccccc1 [IT017] | < 50 nM | < 50 nM | < 50 nM |
| C[C@@H](OC(=O)Nc1c(-c2ccc(-c3ccc(C4(C(=O)O)CC4)cc3)cc2)nc2n1CCN(S(C)(=O)=O)C2)c1ccccc1 [IT021] | > 500 nM | > 500 nM | > 500 nM |
| CNC(=O)N1CCn2c(nc(-c3ccc(-c4ccc(C5(C(=O)O)CC5)cc4)cc3)c2NC(=O)O[C@H](C)c2ccccc2)C1 [IT022] | > 500 nM | > 500 nM | > 500 nM |
| CCOC(=O)N1CCn2c(nc(-c3ccc(-c4ccc(C5(C(=O)O)CC5)cc4)cc3)c2NC(=O)O[C@H](C)c2ccccc2)C1 [IT023] | > 500 nM | > 500 nM | > 500 nM |
| Cc1nsc(-c2ccc(C34CCC(CC(=O)O)(CC3)CC4)cc2)c1NC(=O)O[C@H](C)c1ccccc1 [IT026] | > 500 nM | > 500 nM | > 500 nM |
| Cc1nsc(-c2ccc(C3CCC(C4(C(=O)O)CC4)CC3)cc2)c1NC(=O)O[C@H](C)c1ccccc1 (stereo partly shown) [IT091] | 50 to 500 nM | – | > 500 nM |
| C[C@@H](OC(=O)Nc1c(C#CC2=CCC(C3(C(=O)O)CC3)CC2)cnn1C)c1ccccc1 (stereo partly shown) [IT092] | > 500 nM | – | > 500 nM |
| C[C@@H](OC(=O)Nc1c(-c2ccc(-c3ccc(C4(C(=O)O)CC4)cc3)cc2)cnn1C(F)(F)F)c1ccccc1 [IT094] | < 50 nM | – | 50 to 500 nM |
| C[C@@H](OC(=O)Nc1c(C#Cc2nc3sc(C4(C(=O)O)CC4)cc3s2)cnn1C)c1ccccc1 [IT095] | < 50 nM | – | < 50 nM |
| C[C@@H](OC(=O)N(C)c1c(C#Cc2cc3sc(C4(C(=O)O)CC4)cc3s2)cnn1C)c1ccccc1 [IT097] | 50 to 500 nM | – | > 500 nM |
| C[C@@H](OC(=O)Nc1c(C#Cc2cc3sc(C4(C(=O)NS(C)(=O)=O)CC4)cc3s2)cnn1C)c1ccccc1 [IT098] | < 50 nM | – | < 50 nM |

Second part, led by results:

| EC50 (Human LPA1 [1]) | IC50 (Human LPA1 [3]) | Structure (SMILES) | EC50 [2] |
| --- | --- | --- | --- |
| > 500 nM | > 500 nM | Cc1noc(-c2ccc(-c3ccc4c(C(=O)O)c[nH]c4c3)cc2)c1NC(=O)O[C@H](C)c1ccccc1 [IT009] | > 500 nM |
| < 50 nM | < 50 nM | C[C@@H](OC(=O)Nc1c(C#Cc2ccc3cc(C4(C(=O)O)CC4)ccc3c2)cnn1C)c1ccccc1 [IT014] | 50 to 500 nM |
| < 50 nM | 50 to 500 nM | C[C@@H](OC(=O)Nc1c(C#Cc2ccc3cc(C4(C(=O)O)CC4)ccc3c2)cnn1C1CC1)c1ccccc1 [IT015] | 50 to 500 nM |
| < 50 nM | < 50 nM | CCn1ncc(C#Cc2ccc3cc(C4(C(=O)O)CC4)ccc3c2)c1NC(=O)O[C@H](C)c1ccccc1 [IT016] | 50 to 500 nM |
| > 500 nM | > 500 nM | C[C@@H](OC(=O)Nc1c(-c2ccc(C#CC3(C(=O)O)CC3)cc2)cnn1C)c1ccccc1 [IT018] | > 500 nM |
| > 500 nM | > 500 nM | CC(=O)N1CCn2c(nc(-c3ccc(-c4ccc(C5(C(=O)O)CC5)cc4)cc3)c2NC(=O)O[C@H](C)c2ccccc2)C1 [IT020] | > 500 nM |
| > 500 nM | – | Cc1nsc(-c2ccc(C34CCC(C5(C(=O)O)CC5)(CC3)CC4)cc2)c1NC(=O)O[C@H](C)c1ccccc1 [IT093] | > 500 nM |
| < 50 nM | – | C[C@@H](OC(=O)Nc1c(-c2cc(F)c(-c3ccc(C4(C(=O)O)CC4)cc3)cc2F)oc2cnccc12)c1ccccc1 [IT096] | 50 to 500 nM |
